Assay results as given in US10376520B2, “Methods for the treatment of cardiovascular disorders” (Galapagos NV, priority 2015, dated 2019).

Test system: RA patients
Experiment: LDL determination, Study 1 (RA patients, add-on to MTX)
Type: in vivo, human
Settings: for [LDL] Mean CFB / [LDL] Median CFB: Study 1 12 weeks results
Description: Double-blind, placebo-controlled add on study in subjects with moderately to severely active RA who have an inadequate response to methotrexate (MTX) (oral or parenteral).
595 subjects randomized to one of 6 dose regimens of Compound 1 (dosed as a [Compound 1:HCl:3H2O]) (3 dose levels administered either once or twice daily) or placebo on top of each subject's stable dose of MTX.
Compound 1 (dosed as a [Compound 1:HCl:3H2O]) is dosed for twelve weeks once daily (q.d.) (50 mg, 100 mg or 200 mg) or twice daily (b.i.d.) (25 mg, 50 mg or 100 mg); or placebo.
At Week 12, the subjects on placebo who have not achieved 20% improvement in swollen joint count (SJC66) and tender joint count (TJC68) are re-randomized automatically to receive Compound 1 (dosed as a [Compound 1:HCl:3H2O]) either at 100 mg q.d. or 50 mg b.i.d. doses in a blinded fashion; subjects on 50 mg q.d. who have not achieved 20% improvement in SJC66 and TJC68 will be assigned to 100 mg q.d. and subjects on 25 mg b.i.d. that have not achieved a 20% improvement in SJC66 and TJC68 will be assigned to 50 mg b.i.d. Subjects who switch treatment at week 12 are handled as if they discontinued at week 12 for the purpose of statistical analysis, whereas subjects in the other groups will maintain their randomized treatment until Week 24.
The determination of [LDL]-cholesterol is made using an automated method taking advantage of the selective micellary solubilization of [LDL]-cholesterol by a nonionic detergent and the interaction of a sugar compound and lipoproteins (VLDL and chylomicrons).
When a detergent is included in the enzymatic method for cholesterol determination (cholesterol esterase, cholesterol oxidase coupling reaction), the relative reactivities of cholesterol in the lipoprotein fractions increase in this order: [HDL]<chylomicrons <VLDL <[LDL]. In the presence of Mg^2+, a sugar compound markedly reduces the enzymatic reaction of the cholesterol measurement in VLDL and chylomicrons. The combination of a sugar compound with detergent enables the selective determination of [LDL]-cholesterol in serum. (Friedewald et al., 1972; Rifai et al., 1992)
Homogeneous enzymatic colorimetric assay.
In the presence of peroxidase, the hydrogen peroxide generated reacts with 4-aminoantipyrine and Sodium N-(2-hydroxy-3-sulfopropyl)-3,5-dimethoxyaniline (HSDA) to form a purple-blue dye.
The color intensity of this dye is directly proportional to the cholesterol concentration and is measured photometrically.
Human serum and plasma samples [LDL] determination was done on a Roche/Hitachi Cobas c 701/702 system which automatically calculate the analyte concentration of each sample. Samples containing precipitates are centrifuged before performing the assay.

O=C(Nc1nc2cccc(-c3ccc(CN4CCS(=O)(=O)CC4)cc3)n2n1)C1CC1 [Compound 1, cyclopropanecarboxylic acid {5-[4-(1,1-dioxo-thiomorpholin-4-ylmethyl)-phenyl]-[1,2,4]triazolo[1,5-a]pyridin-2yl}-amide]
[LDL] Mean percentage CFB - 24 weeks results (25 mg b.i.d continued over 24 weeks, week 1): 2.79%
[LDL] Mean percentage CFB - 24 weeks results (25 mg b.i.d continued over 24 weeks, week 2): 3.88%
[LDL] Mean percentage CFB - 24 weeks results (25 mg b.i.d continued over 24 weeks, week 4): 4.15%
[LDL] Mean percentage CFB - 24 weeks results (25 mg b.i.d continued over 24 weeks, week 8): 3.83%
[LDL] Mean percentage CFB - 24 weeks results (25 mg b.i.d continued over 24 weeks, week 12): 7.21%
[LDL] Mean percentage CFB - 24 weeks results (25 mg b.i.d continued over 24 weeks, week 16): 6.54%
[LDL] Mean percentage CFB - 24 weeks results (25 mg b.i.d continued over 24 weeks, week 20): 7.42%
[LDL] Mean percentage CFB - 24 weeks results (25 mg b.i.d continued over 24 weeks, week 24): 8.14%
[LDL] Mean percentage CFB - 24 weeks results (50 mg b.i.d. continued over 24 weeks, week 1): 4.19%
[LDL] Mean percentage CFB - 24 weeks results (50 mg b.i.d. continued over 24 weeks, week 2): 3.43%
[LDL] Mean percentage CFB - 24 weeks results (50 mg b.i.d. continued over 24 weeks, week 4): 7.11%
[LDL] Mean percentage CFB - 24 weeks results (50 mg b.i.d. continued over 24 weeks, week 8): 4.75%
[LDL] Mean percentage CFB - 24 weeks results (50 mg b.i.d. continued over 24 weeks, week 12): 2.33%
[LDL] Mean percentage CFB - 24 weeks results (50 mg b.i.d. continued over 24 weeks, week 16): 5.78%
[LDL] Mean percentage CFB - 24 weeks results (50 mg b.i.d. continued over 24 weeks, week 20): 7.08%
[LDL] Mean percentage CFB - 24 weeks results (50 mg b.i.d. continued over 24 weeks, week 24): 8.29%
[LDL] Mean percentage CFB - 12 weeks results (50 mg q.d. (N = 82), week 1): 0%
[LDL] Mean percentage CFB - 12 weeks results (50 mg q.d. (N = 82), week 2): 1%
[LDL] Mean percentage CFB - 12 weeks results (50 mg q.d. (N = 82), week 4): 0%
[LDL] Mean percentage CFB - 12 weeks results (50 mg q.d. (N = 82), week 8): 3%
[LDL] Mean percentage CFB - 12 weeks results (50 mg q.d. (N = 82), week 12): 6%
[LDL] Mean percentage CFB - 24 weeks results (50 mg q.d. continued over 24 weeks, week 1): 0.26%
[LDL] Mean percentage CFB - 24 weeks results (50 mg q.d. continued over 24 weeks, week 2): −0.24%
[LDL] Mean percentage CFB - 24 weeks results (50 mg q.d. continued over 24 weeks, week 4): 0.35%
[LDL] Mean percentage CFB - 24 weeks results (50 mg q.d. continued over 24 weeks, week 8): 3.58%
[LDL] Mean percentage CFB - 24 weeks results (50 mg q.d. continued over 24 weeks, week 12): 6.67%
[LDL] Mean percentage CFB - 24 weeks results (50 mg q.d. continued over 24 weeks, week 16): 6.70%
[LDL] Mean percentage CFB - 24 weeks results (50 mg q.d. continued over 24 weeks, week 20): 6.29%
[LDL] Mean percentage CFB - 24 weeks results (50 mg q.d. continued over 24 weeks, week 24): 6.05%
[LDL] Mean percentage CFB - 24 weeks results (100 mg b.i.d. continued over 24 weeks, week 1): 8.14%
[LDL] Mean percentage CFB - 24 weeks results (100 mg b.i.d. continued over 24 weeks, week 4): 7.69%
[LDL] Mean percentage CFB - 24 weeks results (100 mg b.i.d. continued over 24 weeks, week 8): 13.14%
[LDL] Mean percentage CFB - 24 weeks results (100 mg b.i.d. continued over 24 weeks, week 12): 11.86%
[LDL] Mean percentage CFB - 24 weeks results (100 mg b.i.d. continued over 24 weeks, week 16): 9.44%
[LDL] Mean percentage CFB - 24 weeks results (100 mg b.i.d. continued over 24 weeks, week 20): 7.71%
[LDL] Mean percentage CFB - 24 weeks results (100 mg b.i.d. continued over 24 weeks, week 24): 12.88%
[LDL] Mean percentage CFB - 12 weeks results (100 mg q.d. (N = 85), week 1): 5%
[LDL] Mean percentage CFB - 12 weeks results (100 mg q.d. (N = 85), week 2): 2%
[LDL] Mean percentage CFB - 12 weeks results (100 mg q.d. (N = 85), week 4): 5%
[LDL] Mean percentage CFB - 12 weeks results (100 mg q.d. (N = 85), week 8): 4%
[LDL] Mean percentage CFB - 12 weeks results (100 mg q.d. (N = 85), week 12): 6%
[LDL] Mean percentage CFB - 24 weeks results (100 mg q.d. continued over 24 weeks, week 1): 5.08%
[LDL] Mean percentage CFB - 24 weeks results (100 mg q.d. continued over 24 weeks, week 2): 1.97%
[LDL] Mean percentage CFB - 24 weeks results (100 mg q.d. continued over 24 weeks, week 4): 5.31%
[LDL] Mean percentage CFB - 24 weeks results (100 mg q.d. continued over 24 weeks, week 8): 3.51%
[LDL] Mean percentage CFB - 24 weeks results (100 mg q.d. continued over 24 weeks, week 12): 5.69%
[LDL] Mean percentage CFB - 24 weeks results (100 mg q.d. continued over 24 weeks, week 16): 0.89%
[LDL] Mean percentage CFB - 24 weeks results (100 mg q.d. continued over 24 weeks, week 20): 1.19%
[LDL] Mean percentage CFB - 24 weeks results (100 mg q.d. continued over 24 weeks, week 24): 2.66%
[LDL] Mean percentage CFB - 12 weeks results (200 mg q.d. (N = 86), week 1): 6%
[LDL] Mean percentage CFB - 12 weeks results (200 mg q.d. (N = 86), week 2): 6%
[LDL] Mean percentage CFB - 12 weeks results (200 mg q.d. (N = 86), week 4): 6%
[LDL] Mean percentage CFB - 12 weeks results (200 mg q.d. (N = 86), week 8): 8%
[LDL] Mean percentage CFB - 12 weeks results (200 mg q.d. (N = 86), week 12): 8%
[LDL] Mean percentage CFB - 24 weeks results (200 mg q.d. continued over 24 weeks, week 1): 6.34%
[LDL] Mean percentage CFB - 24 weeks results (200 mg q.d. continued over 24 weeks, week 2): 5.81%
[LDL] Mean percentage CFB - 24 weeks results (200 mg q.d. continued over 24 weeks, week 4): 5.97%
[LDL] Mean percentage CFB - 24 weeks results (200 mg q.d. continued over 24 weeks, week 8): 7.93%
[LDL] Mean percentage CFB - 24 weeks results (200 mg q.d. continued over 24 weeks, week 12): 7.96%
[LDL] Mean percentage CFB - 24 weeks results (200 mg q.d. continued over 24 weeks, week 16): 7.99%
[LDL] Mean percentage CFB - 24 weeks results (200 mg q.d. continued over 24 weeks, week 20): 8.85%
[LDL] Mean percentage CFB - 24 weeks results (200 mg q.d. continued over 24 weeks, week 24): 7.78%
[LDL] Mean percentage CFB - 12 weeks results (2 x 25 mg b.i.d. (N = 86), week 1): 3%
[LDL] Mean percentage CFB - 12 weeks results (2 x 25 mg b.i.d. (N = 86), week 2): 4%
[LDL] Mean percentage CFB - 12 weeks results (2 x 25 mg b.i.d. (N = 86), week 4): 3%
[LDL] Mean percentage CFB - 12 weeks results (2 x 25 mg b.i.d. (N = 86), week 8): 2%
[LDL] Mean percentage CFB - 12 weeks results (2 x 25 mg b.i.d. (N = 86), week 12): 6%
[LDL] Mean percentage CFB - 12 weeks results (2 x 50 mg b.i.d. (N = 85), week 1): 4%
[LDL] Mean percentage CFB - 12 weeks results (2 x 50 mg b.i.d. (N = 85), week 2): 3%
[LDL] Mean percentage CFB - 12 weeks results (2 x 50 mg b.i.d. (N = 85), week 4): 7%
[LDL] Mean percentage CFB - 12 weeks results (2 x 50 mg b.i.d. (N = 85), week 8): 5%
[LDL] Mean percentage CFB - 12 weeks results (2 x 50 mg b.i.d. (N = 85), week 12): 2%
[LDL] Mean percentage CFB - 12 weeks results (2 x 100 mg b.i.d. (N = 84), week 1): 8%
[LDL] Mean percentage CFB - 12 weeks results (2 x 100 mg b.i.d. (N = 84), week 2): 6%
[LDL] Mean percentage CFB - 12 weeks results (2 x 100 mg b.i.d. (N = 84), week 4): 8%
[LDL] Mean percentage CFB - 12 weeks results (2 x 100 mg b.i.d. (N = 84), week 8): 13%
[LDL] Mean percentage CFB - 12 weeks results (2 x 100 mg b.i.d. (N = 84), week 12): 12%
[LDL] Mean CFB (50 mg q.d., week 1): -0.01 mmol/L
[LDL] Median CFB (50 mg q.d., week 1): -0.01 mmol/L
[LDL] Mean CFB (50 mg q.d., week 2): 0.02 mmol/L
[LDL] Median CFB (50 mg q.d., week 2): 0.02 mmol/L
[LDL] Mean CFB (50 mg q.d., week 4): 0.01 mmol/L
[LDL] Median CFB (50 mg q.d., week 4): -0.01 mmol/L
[LDL] Mean CFB (50 mg q.d., week 8): 0.06 mmol/L
[LDL] Median CFB (50 mg q.d., week 8): 0.07 mmol/L
[LDL] Mean CFB (50 mg q.d., week 12): 0.14 mmol/L
[LDL] Median CFB (50 mg q.d., week 12): 0.13 mmol/L
[LDL] Mean CFB (100 mg q.d., week 1): 0.11 mmol/L
[LDL] Median CFB (100 mg q.d., week 1): 0.1 mmol/L
[LDL] Mean CFB (100 mg q.d., week 2): 0.01 mmol/L
[LDL] Median CFB (100 mg q.d., week 2): 0.02 mmol/L
[LDL] Mean CFB (100 mg q.d., week 4): 0.13 mmol/L
[LDL] Median CFB (100 mg q.d., week 4): 0.13 mmol/L
[LDL] Mean CFB (100 mg q.d., week 8): 0.03 mmol/L
[LDL] Median CFB (100 mg q.d., week 8): 0.05 mmol/L
[LDL] Mean CFB (100 mg q.d., week 12): 0.13 mmol/L
[LDL] Median CFB (100 mg q.d., week 12): 0.13 mmol/L
[LDL] Mean CFB (200 mg q.d., week 1): 0.16 mmol/L
[LDL] Median CFB (200 mg q.d., week 1): 0.16 mmol/L
